By MIC is commonly meant the lowest concentration found to suppress growth.

Structures are written as SMILES. Values after ≈ are worked out from the molar mass of the structure shown. Some results are limits rather than exact numbers.

The values that follow come from ChEMBL document CHEMBL1134904, “The activity of p-methoxybenzylisothiocyanate against Neisseria gonorrhoeae, Haemophilus ducreyi, and other microorganisms” (Bioorg Med Chem Lett, 2002).

Series [1] relates to Pseudomonas aeruginosa. Kind of series: The compound was tested for minimal inhibitory concentration against Resistant Pseudomonas aeruginosa. Format: functional.
Series [2] relates to Neisseria gonorrhoeae. Briefly: The compound was tested for minimal inhibitory concentration against Neisseria gonorrhoeae. Format: functional.
Series [3] concerns Staphylococcus aureus. Kind of series: The compound was tested for minimal inhibitory concentration against Resistant Staphylococcus aureus. Format: functional.
Series [4] relates to Micrococcus luteus. Briefly: The compound was tested for minimal inhibitory concentration against Micrococcus luteus. Type of series: functional.
The test system of series [5] is Bacillus subtilis. Briefly: The compound was tested for minimal inhibitory concentration against Bacillus subtilis. Format: functional.
Series [6] deals with Enterobacter sp. Kind of series: The compound was tested for minimal inhibitory concentration against Enterobacter sp. Format: functional.
In series [7] the test system is Staphylococcus aureus. Kind of series: The compound was tested for minimal inhibitory concentration against Staphylococcus aureus. Format: functional.
In series [8] the test system is Neisseria gonorrhoeae. Briefly: The compound was tested for minimal inhibitory concentration against Penicillinase producing Neisseria gonorrhoeae (PPNG). Type of series: functional.
The subject of series [9] is [Haemophilus] ducreyi. Kind of series: The compound was tested for minimal inhibitory concentration against Haemophilus ducreyi. Type of series: functional.
Series [10] has as its system Candida albicans. Kind of series: The compound was tested for minimal inhibitory concentration against Candida albicans. Format: functional.
The subject of series [11] is Pseudomonas aeruginosa. Briefly: The compound was tested for minimal inhibitory concentration against Pseudomonas aeruginosa. Format: functional.
Series [12] deals with Escherichia coli. Kind of series: The compound was tested for minimal inhibitory concentration against Escherichia coli. Format: functional.
The nature of series [13]: In vitro cellular toxicity was determined at a concentration of 100 uM in Graham cell lines; found to be non toxic at the above concentration. Format: cell-based.

Turning to `O=C(O)c1cn(C2CC2)c2cc(N3CCNCC3)c(F)cc2c1=O` [CIPROFLOXACIN], the MIC in series [1] is > 32 µg/mL; in series [2], 0.25 µg/mL (≈ 0.754 µM); in series [3] it was > 32 µg/mL; in series [4] it was 2 µg/mL (≈ 6.04 µM); in [5], 2 µg/mL (≈ 6.04 µM); in series [6], 2 µg/mL (≈ 6.04 µM). The MIC was determined as 2 µg/mL (≈ 6.04 µM) in [7] and 0.25 µg/mL (≈ 0.754 µM) in series [8].

`COc1ccc(CN=C=S)cc1`: the minimum inhibitory concentration (MIC) was determined as 16 µg/mL (≈ 89.3 µM) in series [1]; 64 µg/mL (≈ 357 µM) in series [9]; 2 µg/mL (≈ 11.2 µM) in series [10]; 16 µg/mL (≈ 89.3 µM) in series [11]; 4 µg/mL (≈ 22.3 µM) in [2]; 8 µg/mL (≈ 44.6 µM) in [3]. The MIC in series [12] was found to be 32 µg/mL (≈ 179 µM); in series [4], 8 µg/mL (≈ 44.6 µM); in series [5], 32 µg/mL (≈ 179 µM); in [6], 8 µg/mL (≈ 44.6 µM); in series [7], 2 µg/mL (≈ 11.2 µM); in series [8], 4 µg/mL (≈ 22.3 µM). The Toxicity result in series [13] is listed as “Not toxic”.

`C[C@H]1c2cccc(O)c2C(=O)C2=C(O)[C@]3(O)C(=O)C(C(N)=O)=C(O)[C@@H](N(C)C)[C@@H]3[C@@H](O)[C@@H]21.O` [DOXYCYCLINE]: the MIC was > 32 µg/mL in [1]; 4 µg/mL in [9]; 8 µg/mL in series [11]; 0.5 µg/mL in [2]; > 32 µg/mL in series [3]; 2 µg/mL in series [12]. The MIC is 8 µg/mL in series [4]; 8 µg/mL in series [5]; 8 µg/mL in series [6]; 8 µg/mL in series [7]; > 32 µg/mL in series [8].

On to `C[C@@H]1[C@H](O)[C@@H](C)/C=C/C=C/C=C/C=C/C=C/C=C/C=C/[C@H](O[C@@H]2O[C@H](C)[C@@H](O)[C@H](N)[C@@H]2O)C[C@@H]2O[C@](O)(C[C@@H](O)C[C@@H](O)[C@H](O)CC[C@@H](O)C[C@@H](O)CC(=O)O[C@H]1C)C[C@H](O)[C@H]2C(=O)O` (relative stereo) [AMPHOTERICIN B], for which inhibition of growth in series [10] (MIC) required 2 µg/mL (≈ 2.16 µM).

For the compound `OC(Cn1cncn1)(Cn1cncn1)c1ccc(F)cc1F` [FLUCONAZOLE], inhibition of growth in series [10] (MIC) required 0.25 µg/mL (≈ 0.816 µM).

Take `CC1(C)S[C@@H]2[C@H](NC(=O)[C@H](N)c3ccccc3)C(=O)N2[C@H]1C(=O)O` [AMPICILLIN]: the minimal inhibitory concentration (MIC) in [9] was 2 µg/mL (≈ 5.72 µM); in series [11] it was > 32 µg/mL; in series [2], 0.25 µg/mL (≈ 0.715 µM); in [3], > 32 µg/mL; in [12], 8 µg/mL (≈ 22.9 µM); in [4], 2 µg/mL (≈ 5.72 µM). For the same compound, the minimum inhibitory concentration (MIC) in series [5] was > 32 µg/mL; in series [6], 16 µg/mL (≈ 45.8 µM); in [7], 2 µg/mL (≈ 5.72 µM); in series [8] it was > 32 µg/mL.
